Experimental data as given in ChEMBL document CHEMBL1201862, “PubChem BioAssay data set” (2004).
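Briefly, cells in 96-well plates were exposed to five compound concentrations for 48 h, and endpoints were estimated by linear interpolation. GI50 = concentration required for 50% inhibition of growth.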 Active and inactive are the calls of the source. Rule as the data show it: active = GI50 up to about 1.1 µM and inactive = higher.

How the values were obtained:
Experiment in all cases: NCI anticancer screen, dose series, 48 h
UACC-257 = system: UACC-257
DU-145 = system: DU-145
NCI-H23 = system: NCI-H23
SW-620 = system: SW-620
U-251 = system: U-251
SK-MEL-2 = system: SK-MEL-2
T47D = system: T47D
Malme-3M = system: Malme-3M
MOLT-4 = system: MOLT-4
IGROV-1 = system: IGROV-1
OVCAR-5 = system: OVCAR-5
MCF7 = system: MCF7
HCT-116 = system: HCT-116
COLO 205 = system: COLO 205
TK-10 = system: TK-10
M14 = system: M14
SF-268 = system: SF-268
SK-MEL-28 = system: SK-MEL-28
HOP-92 = system: HOP-92
UO-31 = system: UO-31

Measured: GI50

CCn1c2ccccc2c2nnc(NCCCO)nc21
inactive: UACC-257 > 100 µM | DU-145 > 100 µM | NCI-H23 > 100 µM | SW-620 > 100 µM | U-251 > 100 µM | SK-MEL-2 > 100 µM | T47D 82 µM | Malme-3M > 100 µM | MOLT-4 58.2 µM | IGROV-1 > 100 µM | OVCAR-5 > 100 µM | MCF7 > 100 µM | HCT-116 > 100 µM | COLO 205 > 100 µM | TK-10 > 100 µM | M14 > 100 µM | SF-268 > 100 µM | SK-MEL-28 > 100 µM | HOP-92 > 100 µM

CSCCC(NC(=O)C(Cc1c[nH]c2ccccc12)NC(=O)CCNC(=O)OC(C)(C)C)C(=O)NC(CC(=O)O)C(=O)NC(Cc1ccccc1)C(N)=O (configuration not stated)
inactive: UACC-257 > 50 µM | DU-145 > 50 µM | SW-620 > 50 µM | U-251 > 50 µM | SK-MEL-2 > 50 µM | T47D > 50 µM | MOLT-4 > 50 µM | IGROV-1 > 50 µM | OVCAR-5 > 50 µM | MCF7 > 50 µM | HCT-116 > 50 µM | COLO 205 > 50 µM | TK-10 > 50 µM | M14 > 50 µM | SF-268 > 50 µM | SK-MEL-28 > 50 µM | HOP-92 > 50 µM

CCOC(=O)CC1C(C(=O)OCC)=Cn2c([nH]c3cccc4cccc2c43)=C1C(=O)OCC (configuration not stated)
inactive: UACC-257 > 100 µM | DU-145 > 100 µM | UO-31 > 100 µM | NCI-H23 > 100 µM | SW-620 > 100 µM | U-251 > 100 µM | SK-MEL-2 > 100 µM | T47D 43.8 µM | MOLT-4 > 100 µM | IGROV-1 > 100 µM | OVCAR-5 > 100 µM | MCF7 > 100 µM | HCT-116 > 100 µM | COLO 205 > 100 µM | TK-10 > 100 µM | M14 > 100 µM | SK-MEL-28 > 100 µM | HOP-92 > 100 µM

COc1cc(C2=N/C(=C/c3cccs3)C(=O)O2)cc(OC)c1OC
inactive: UACC-257 > 100 µM | DU-145 > 100 µM | NCI-H23 > 100 µM | SW-620 > 100 µM | U-251 > 100 µM | SK-MEL-2 > 100 µM | T47D > 100 µM | Malme-3M > 100 µM | MOLT-4 > 100 µM | IGROV-1 > 100 µM | OVCAR-5 > 100 µM | MCF7 > 100 µM | HCT-116 > 100 µM | COLO 205 > 100 µM | TK-10 > 100 µM | M14 > 100 µM | SF-268 > 100 µM | SK-MEL-28 > 100 µM | HOP-92 > 100 µM

COC(=O)CCC1(C)C2CCC1(C)/C(=N/O)C2 (configuration not stated)
inactive: UACC-257 > 100 µM | DU-145 > 100 µM | UO-31 > 100 µM | NCI-H23 > 100 µM | SW-620 > 100 µM | U-251 > 100 µM | SK-MEL-2 > 100 µM | T47D > 100 µM | Malme-3M > 100 µM | MOLT-4 > 100 µM | IGROV-1 > 100 µM | OVCAR-5 > 100 µM | MCF7 > 100 µM | HCT-116 > 100 µM | COLO 205 > 100 µM | TK-10 > 100 µM | M14 > 100 µM | SF-268 > 100 µM | SK-MEL-28 > 100 µM

c1cc(-c2csc(-c3ccsc3)c2)cs1
inactive: UACC-257 > 100 µM | DU-145 > 100 µM | UO-31 > 100 µM | NCI-H23 > 100 µM | SW-620 > 100 µM | U-251 > 100 µM | T47D > 100 µM | MOLT-4 > 100 µM | IGROV-1 > 100 µM | OVCAR-5 88.9 µM | MCF7 20.3 µM | HCT-116 > 100 µM | COLO 205 > 100 µM | TK-10 > 100 µM | M14 47 µM | SF-268 > 100 µM | SK-MEL-28 > 100 µM | HOP-92 > 100 µM

COc1ccc(C(=O)/C=C/c2cc(O)c(O)c(F)c2F)c(OC)c1
inactive: UACC-257 15.9 µM | DU-145 23.9 µM | UO-31 35.2 µM | NCI-H23 13.8 µM | SW-620 15.4 µM | U-251 11.1 µM | SK-MEL-2 14.4 µM | T47D 15.2 µM | Malme-3M 15.5 µM | IGROV-1 19.8 µM | OVCAR-5 35 µM | MCF7 3.22 µM | HCT-116 6.95 µM | COLO 205 15.6 µM | TK-10 22.5 µM | M14 22.8 µM | SF-268 18.6 µM | SK-MEL-28 30 µM | HOP-92 46.7 µM

COc1ccccc1NC(=O)CC(=O)NN
inactive: UACC-257 > 100 µM | DU-145 > 100 µM | UO-31 > 100 µM | NCI-H23 > 100 µM | SW-620 > 100 µM | U-251 > 100 µM | SK-MEL-2 > 100 µM | T47D > 100 µM | Malme-3M > 100 µM | MOLT-4 > 100 µM | IGROV-1 > 100 µM | OVCAR-5 > 100 µM | MCF7 > 100 µM | HCT-116 > 100 µM | COLO 205 > 100 µM | TK-10 > 100 µM | SF-268 > 100 µM | SK-MEL-28 > 100 µM | HOP-92 > 100 µM

O=C1C(Sc2ccc3ccccc3c2)=C(Sc2ccc3ccccc3c2)C(=O)c2ccccc21
inactive: UACC-257 3.57 µM | DU-145 22 µM | UO-31 3.95 µM | NCI-H23 5.13 µM | SW-620 4.8 µM | U-251 6.21 µM | SK-MEL-2 5.53 µM | T47D 1.76 µM | MOLT-4 2.32 µM | OVCAR-5 11.3 µM | MCF7 11.2 µM | HCT-116 7.59 µM | COLO 205 3.95 µM | M14 11.5 µM | SF-268 11 µM | SK-MEL-28 15.2 µM | HOP-92 6.64 µM

COC(=O)C(CCc1ccccc1I)C1=CCC2(CC1)OCCO2 (configuration not stated)
inactive: UACC-257 29.4 µM | DU-145 73.8 µM | UO-31 23.1 µM | NCI-H23 30.7 µM | SW-620 40.4 µM | U-251 61.8 µM | SK-MEL-2 41.2 µM | T47D 15.8 µM | Malme-3M 33.6 µM | MOLT-4 49.8 µM | IGROV-1 96.2 µM | OVCAR-5 15.7 µM | MCF7 32.7 µM | COLO 205 57.9 µM | TK-10 38.3 µM | M14 28.2 µM | SF-268 57.9 µM | SK-MEL-28 89.9 µM | HOP-92 30.4 µM

N#C/C(N)=C(C#N)/N=C/Nc1ccccc1N
inactive: UACC-257 > 100 µM | DU-145 > 100 µM | UO-31 > 100 µM | NCI-H23 > 100 µM | SW-620 > 100 µM | U-251 > 100 µM | SK-MEL-2 > 100 µM | T47D > 100 µM | Malme-3M > 100 µM | MOLT-4 > 100 µM | IGROV-1 > 100 µM | OVCAR-5 > 100 µM | MCF7 > 100 µM | HCT-116 > 100 µM | COLO 205 > 100 µM | TK-10 > 100 µM | M14 > 100 µM | SF-268 > 100 µM | SK-MEL-28 > 100 µM

O=c1oc2c([N+](=O)[O-])cc([N+](=O)[O-])cc2c2ccccc12
inactive: UACC-257 > 100 µM | DU-145 > 100 µM | NCI-H23 > 100 µM | SW-620 > 100 µM | U-251 > 100 µM | SK-MEL-2 > 100 µM | T47D > 100 µM | Malme-3M > 100 µM | MOLT-4 > 100 µM | IGROV-1 > 100 µM | OVCAR-5 > 100 µM | MCF7 > 100 µM | HCT-116 > 100 µM | COLO 205 > 100 µM | TK-10 > 100 µM | M14 > 100 µM | SF-268 > 100 µM | SK-MEL-28 > 100 µM | HOP-92 > 100 µM

COC(=O)NC1C(C)OC(OC2C/C=C(/C)C3C=CC4C(OC5CC(OC6CC(OC7CC(O)C(O)C(C)O7)C(OC7CC(O)C(OC)C(C)O7)C(C)O6)C(O)C(C)O5)C(C)CC(C)C4C3(C)C(=O)C3=C(O)C4(CC(C)C(CO)=CC4/C=C\2C)OC3=O)CC1(C)[N+](=O)[O-] (configuration not stated)
inactive: UACC-257 9.89 µM | DU-145 6.73 µM | UO-31 22.9 µM | NCI-H23 12.9 µM | SW-620 5.24 µM | U-251 3.84 µM | SK-MEL-2 11.6 µM | T47D 7.78 µM | MOLT-4 6.15 µM | IGROV-1 10.4 µM | OVCAR-5 16.9 µM | MCF7 11.7 µM | HCT-116 1.59 µM | COLO 205 11.3 µM | TK-10 16.6 µM | M14 17.1 µM | SF-268 11.6 µM | SK-MEL-28 8.34 µM | HOP-92 6.24 µM

COc1cc2c(c(OC)c1O)-c1ccc(OC)c(=O)cc1[C@@H](NC(=O)C(F)(F)F)CC2
inactive: UACC-257 > 100 µM | UO-31 6.87 µM | T47D > 100 µM | TK-10 > 100 µM
active: DU-145 0.361 µM | NCI-H23 0.0809 µM | SW-620 0.0376 µM | U-251 0.324 µM | SK-MEL-2 0.0282 µM | Malme-3M 0.0641 µM | IGROV-1 0.229 µM | MCF7 0.0441 µM | HCT-116 0.0474 µM | COLO 205 0.0352 µM | M14 0.0634 µM | SF-268 0.173 µM | HOP-92 0.111 µM

Cc1nn2c(N)cc(=O)nc2nc1/C=C/c1ccc(N(C)C)cc1
inactive: UACC-257 17.3 µM | DU-145 > 100 µM | UO-31 3.94 µM | NCI-H23 10.4 µM | SW-620 > 100 µM | U-251 > 22.1 µM | SK-MEL-2 > 49.2 µM | T47D > 100 µM | Malme-3M 5.2 µM | MOLT-4 > 52 µM | IGROV-1 16.6 µM | OVCAR-5 17.5 µM | MCF7 3.92 µM | HCT-116 12 µM | COLO 205 7.74 µM | TK-10 > 100 µM | M14 > 28 µM | SF-268 > 100 µM | SK-MEL-28 > 84.5 µM
